For this assay, the target named is T1, recombinant human SAE enzyme (Homo sapiens, UniProt Q9UBT2).
T1 sequence (Q9UBT2 1-640): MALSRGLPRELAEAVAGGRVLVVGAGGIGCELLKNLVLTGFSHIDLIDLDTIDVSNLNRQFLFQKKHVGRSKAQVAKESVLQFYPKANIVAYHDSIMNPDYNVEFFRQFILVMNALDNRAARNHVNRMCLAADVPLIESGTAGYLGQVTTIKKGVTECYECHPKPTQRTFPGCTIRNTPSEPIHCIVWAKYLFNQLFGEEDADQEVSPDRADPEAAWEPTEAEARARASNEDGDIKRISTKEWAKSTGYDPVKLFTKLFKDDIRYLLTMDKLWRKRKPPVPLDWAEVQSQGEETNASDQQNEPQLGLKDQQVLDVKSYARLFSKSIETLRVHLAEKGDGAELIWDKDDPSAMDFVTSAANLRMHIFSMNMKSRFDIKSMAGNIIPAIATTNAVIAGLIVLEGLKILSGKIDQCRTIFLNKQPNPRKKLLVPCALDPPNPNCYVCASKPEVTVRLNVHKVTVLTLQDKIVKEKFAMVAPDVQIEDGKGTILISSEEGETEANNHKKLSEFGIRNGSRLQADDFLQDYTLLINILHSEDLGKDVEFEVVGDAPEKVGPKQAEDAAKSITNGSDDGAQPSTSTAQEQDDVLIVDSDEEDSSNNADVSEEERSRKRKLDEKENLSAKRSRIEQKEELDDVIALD
T1 sequence (Q9UBE0 1-346 partner): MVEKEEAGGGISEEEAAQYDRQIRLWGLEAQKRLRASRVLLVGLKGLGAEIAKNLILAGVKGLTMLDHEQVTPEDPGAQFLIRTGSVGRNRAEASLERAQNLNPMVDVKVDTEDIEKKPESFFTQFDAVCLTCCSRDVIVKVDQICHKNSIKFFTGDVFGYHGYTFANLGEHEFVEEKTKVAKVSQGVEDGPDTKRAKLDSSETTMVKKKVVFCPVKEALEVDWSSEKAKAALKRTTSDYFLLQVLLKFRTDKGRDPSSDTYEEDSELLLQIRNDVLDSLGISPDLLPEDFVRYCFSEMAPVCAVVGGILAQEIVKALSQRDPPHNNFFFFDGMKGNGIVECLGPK
The assay can be described thus: SAE HTRF Enzyme Assay. The settings on record: for pIC50: class symbols A-C; for inhibition at 0.111 µM: compound concentration 0.111 μM, read-out: Percent Inhibition. The class given is biochemical. A digest of the protocol:
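Recombinant human SAE (0.11 nM) transferred Sumo-Flag (0.125 μM) to Ubc9-GST (0.01 μM) with 0.5 μM ATP in HEPES pH 7.5, MgCl2, GSH, BSA; 105 min at 24° C. EDTA stop, Eu-cryptate anti-Flag and XL-APC anti-GST added, 2 h, then HTRF read. Values given as % inhibition at one concentration or IC50.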

SMILES strings stand for the structures. pIC50: −log10 of the molar value.

From US9695154B2, “Heteroaryl inhibitors of sumo activating enzyme” (MILLENNIUM PHARMACEUTICALS, INC., priority 2013, dated 2017) come the findings set out here.

In the case of `Cc1cc(C(=O)c2cncnc2N[C@@H]2C[C@H](COS(N)(=O)=O)[C@@H](O)C2)nn1Cc1cccc(Br)c1` [Compound I-309, {(1R,2S,4R)-4-[(5-{[1-(3-Bromobenzyl)-5-methyl-1H-pyrazol-3-yl]carbonyl}pyrimidin-4-yl)amino]-2-hydroxycyclopentyl}methyl sulfamate], the pIC50 was over 8.00 and the inhibition at 0.111 µM was determined as 100%.

For `NS(=O)(=O)OC[C@H]1C[C@@H](Nc2ncncc2C(=O)c2cc(Cl)n(Cc3cccc(I)c3)c2)[C@@H](F)[C@@H]1O` [Compound I-310, {(1R,2R,3R,4R)-4-[(5-{[5-chloro-1-(3-iodobenzyl)-1H-pyrrol-3-yl]carbonyl}pyrimidin-4-yl)amino]-3-fluoro-2-hydroxycyclopentyl}methyl sulfamate], the pIC50 is over 8.00 and the inhibition at 0.111 µM came out at 98%.

For `NS(=O)(=O)OC[C@H]1C[C@@H](Nc2ncncc2C(=O)c2ccn(Cc3ccc(Cl)c(Cl)c3)n2)[C@@H](F)[C@@H]1O` [Compound I-311, {(1R,2R,3R,4R)-4-[(5-{[1-(3,4-dichlorobenzyl)-1H-pyrazol-3-yl]carbonyl}pyrimidin-4-yl)amino]-3-fluoro-2-hydroxycyclopentyl}methyl sulfamate], the pIC50 is over 8.00 and the inhibition at 0.111 µM was 98%.

On to `NS(=O)(=O)OC[C@H]1C[C@@H](Nc2ncncc2C(=O)c2ccn(Cc3cccc(Br)c3)c2)[C@@H](F)[C@@H]1O` [Compound I-312, {(1R,2R,3R,4R)-4-[(5-{[1-(3-bromobenzyl)-1H-pyrrol-3-yl]carbonyl}pyrimidin-4-yl)amino]-3-fluoro-2-hydroxycyclopentyl}methyl sulfamate], for which the pIC50 was over 8.00 and the inhibition at 0.111 µM is 99%.

Turning to `C=CC(=O)Nc1cccc(Cn2ccc(C(=O)c3cncnc3N[C@@H]3C[C@H](COS(N)(=O)=O)[C@@H](O)[C@H]3O)n2)c1` [Compound I-313, [(1R,2R,3S,4R)-4-{[5-({1-[3-(Acryloylamino)benzyl]-1H-pyrazol-3-yl}carbonyl)pyrimidin-4-yl]amino}-2,3-dihydroxycyclopentyl]methyl sulfamate], the pIC50 was over 8.00 and the inhibition at 0.111 µM stood at 95%.

Take `NS(=O)(=O)OC[C@H]1C[C@@H](Nc2ncncc2C(=O)c2ccn(Cc3cc(F)c(F)cc3F)n2)[C@H](O)[C@@H]1O` [Compound I-314, {(1R,2R,3S,4R)-2,3-dihydroxy-4-[(5-{[1-(2,4,5-trifluorobenzyl)-1H-pyrazol-3-yl]carbonyl}pyrimidin-4-yl)amino]cyclopentyl}methyl sulfamate]: the pIC50 was over 8.00 and the inhibition at 0.111 µM was 97%.

`NS(=O)(=O)OC[C@H]1C[C@@H](Nc2ncncc2C(=O)c2cc(C(F)(F)F)n(Cc3cccc(Cl)c3)n2)[C@@H](F)[C@@H]1O` [Compound I-316, {(1R,2R,3R,4R)-4-[(5-{[1-(3-Chlorobenzyl)-5-(trifluoromethyl)-1H-pyrazol-3-yl]carbonyl}pyrimidin-4-yl)amino]-3-fluoro-2-hydroxycyclopentyl}methyl sulfamate]: the negative-log IC50 (pIC50) was over 8.00 and the inhibition at 0.111 µM stood at 94%.

For `NS(=O)(=O)OC[C@H]1C[C@@H](Nc2ncncc2C(=O)c2ccn(Cc3ccccc3)n2)[C@@H](F)[C@@H]1O` [Compound I-317, [(1R,2R,3R,4R)-4-({5-[(1-Benzyl-1H-pyrazol-3-yl)carbonyl]pyrimidin-4-yl}amino)-3-fluoro-2-hydroxycyclopentyl]methyl sulfamate], the pIC50 was over 8.00 and the inhibition at 0.111 µM was found to be 96%.

For the compound `NS(=O)(=O)OC[C@H]1C[C@@H](Nc2ncncc2C(=O)c2ccn(Cc3c(F)c(F)c(F)c(F)c3F)n2)[C@H](O)[C@@H]1O` [Compound I-318, {(1R,2R,3S,4R)-2,3-dihydroxy-4-[(5-{[1-(pentafluorobenzyl)-1H-pyrazol-3-yl]carbonyl}pyrimidin-4-yl)amino]cyclopentyl}methyl sulfamate], the pIC50 was over 8.00 and the inhibition at 0.111 µM stood at 95%.

For `NS(=O)(=O)OC[C@@H]1C[C@@H](Nc2ncncc2C(=O)c2ccn(Cc3cccc(Br)c3)c2)C[C@@H]1O` [Compound I-319, {(1S,2S,4R)-4-[(5-{[1-(3-Bromobenzyl)-1H-pyrrol-3-yl]carbonyl}pyrimidin-4-yl)amino]-2-hydroxycyclopentyl}methyl sulfamate], the pIC50 was over 8.00 and the inhibition at 0.111 µM came to 99%.

Consider `NS(=O)(=O)OC[C@H]1C[C@@H](Nc2ncncc2C(=O)c2cc(Cl)n(Cc3ccc(F)c(Br)c3)c2)[C@@H](F)[C@@H]1O` [Compound I-320, {(1R,2R,3R,4R)-4-[(5-{[1-(3-bromo-4-fluorobenzyl)-5-chloro-1H-pyrrol-3-yl]carbonyl}pyrimidin-4-yl)amino]-3-fluoro-2-hydroxycyclopentyl}methyl sulfamate], for which the pIC50 was over 8.00 and the inhibition at 0.111 µM turned out to be 98%.

On to `C=CS(=O)(=O)c1cccc(Cn2ccc(C(=O)c3cncnc3N[C@@H]3C[C@H](COS(N)(=O)=O)[C@@H](O)[C@H]3O)n2)c1` [Compound I-321, [(1R,2R,3S,4R)-2,3-Dihydroxy-4-{[5-({1-[3-(vinylsulfonyl)benzyl]-1H-pyrazol-3-yl}carbonyl)pyrimidin-4-yl]amino}cyclopentyl]methyl sulfamate], for which the pIC50 was 7.00 to 8.00 and the inhibition at 0.111 µM turned out to be 89%.

As to `NS(=O)(=O)OC[C@H]1C[C@@H](Nc2ncncc2C(=O)c2ccn(Cc3cc4ccccc4s3)c2)[C@@H](F)[C@@H]1O` [Compound I-322, {(1R,2R,3R,4R)-4-[(5-{[1-(1-benzothiophen-2-ylmethyl)-1H-pyrrol-3-yl]carbonyl}pyrimidin-4-yl)amino]-3-fluoro-2-hydroxycyclopentyl}methyl sulfamate], the pIC50 was over 8.00 and the inhibition at 0.111 µM worked out at 99%.

For the compound `NS(=O)(=O)OC[C@H]1C[C@@H](Nc2ncncc2C(=O)c2ccn(Cc3cc(Br)ccn3)n2)[C@H](O)[C@@H]1O` [Compound I-324, [(1R,2R,3S,4R)-4-{[5-({1-[(4-bromopyridin-2-yl)methyl]-1H-pyrazol-3-yl}carbonyl)pyrimidin-4-yl]amino}-2,3-dihydroxycyclopentyl]methyl sulfamate], the pIC50 is over 8.00 and the inhibition at 0.111 µM came out at 100%.

On to `COc1cccc(Cn2ccc(C(=O)c3cncnc3N[C@@H]3C[C@H](COS(N)(=O)=O)[C@@H](O)[C@H]3O)n2)c1` [Compound I-325, {(1R,2R,3S,4R)-2,3-dihydroxy-4-[(5-{[1-(3-methoxybenzyl)-1H-pyrazol-3-yl]carbonyl}pyrimidin-4-yl)amino]cyclopentyl}methyl sulfamate], for which the pIC50 is over 8.00 and the inhibition at 0.111 µM is 99%.

As for `NS(=O)(=O)OC[C@H]1C[C@@H](Nc2ncncc2C(=O)c2ccn(Cc3cc(F)c(F)c(F)c3)n2)[C@H](O)[C@@H]1O` [Compound I-326, {(1R,2R,3S,4R)-2,3-dihydroxy-4-[(5-{[1-(3,4,5-trifluorobenzyl)-1H-pyrazol-3-yl]carbonyl}pyrimidin-4-yl)amino]cyclopentyl}methyl sulfamate], the pIC50 was over 8.00 and the inhibition at 0.111 µM is 95%.
